Data set [1] can be described thus: Solubility of the free base and its salts (description). Type of data set: physicochemical.
The conditions of data set [2]: cited from earlier work.
The conditions of data set [3]: clinical, humans; cited from earlier work.
A short description of data set [4]: Hygroscopicity by Dynamic Water Sorption (DVS). The settings on record: 25° C.; for found to be hygroscopic: DVS, 'Neither' = not hygroscopic. Type of data set: physicochemical. Here is the method: Hygroscopicity is measured using a Dynamic Water Sorption (DVS) apparatus. Measurements are performed at 25° C. using about 8-10 mg of substance. The r.h. is changed in steps of 10% r.h. as follows: 40-0-95-0-40% r.h. The minimum stage time is 60 min, the maximum 180 min, if the change in mass of 10 min is less than 0.002%/min, the r.h. is changed to the next step.

Data set [5] can be described thus: Equilibration in suspension (polymorphism). Type of data set: physicochemical. The conditions noted are these: over a range of applied conditions. The text has this: Lack of polymorphism is a beneficial property for a solid form designated to be developed as a medicament.
The nature of data set [6]: Stability and crystal formation of aqueous mesylate solutions on storage. Type of data set: physicochemical. The text has this: The expression “free of any other salts” as used herein means that neither any salts derived from inorganic or organic acids, such as sodium chloride, as isotonic agent nor any buffer salts are present.
In one embodiment, the formulation consists of the mesylate salt of an isotonic aqueous solution of 5-(2,4-dihydroxy-5-isopropyl-phenyl)-4-(4-morpholin-4-ylmethyl-phenyl)-isoxazole-3-carboxylic acid ethylamide and 5% w/w of glucose or mannitol. […] Furthermore, the pH of such a solution prevents Maillard reactions during autoclavation of the 5% glucose solution which would lead to discoloration at neutral pH.

Data set [7] can be described thus: Stress tests in solution or suspensions, 4 weeks at 50° C. (Example 8). The format is physicochemical. The procedure: The stability of the AUY922 mesylate salt in different aqueous media were determined under stress conditions (4 weeks at 50° C.) and the following appearance/content recovery/sum of by- and degradation products were found: […]
A short description of data set [8]: Solubility of the mesylate salt in different aqueous media (Example 7). Type of data set: physicochemical. Here is the method:
The solubility of the 5-(2,4-dihydroxy-5-isopropyl-phenyl)-4-(4-morpholin-4-ylmethyl-phenyl)-isoxazole-3-carboxylic acid ethylamide (AUY922) mesylate salt in different aqueous media were determined and found to be as follows: […]

A short description of data set [9]: pH and autoclavation of the 4.8-5.2 mg/ml aqueous mesylate solution. The format is physicochemical. Here is the method:
Preferably, the formulation comprises between around 4.8 and 5.2 mg/ml solution, more preferably 5.0 mg/ml solution, of 5-(2,4-dihydroxy-5-isopropyl-phenyl)-4-(4-morpholin-4-ylmethyl-phenyl)-isoxazole-3-carboxylic acid ethylamide mesylate. The pH of such a solution is around 4.2 and therefore at the stability maximum of the mesylate salt. This surprising finding renders the solution particularly suitable for pharmaceutical use. In particular, it allows to use the solution without any other excipients, such as buffers, for stabilizing the drug substance.

The next data set is described as follows: Light sensitivity. Type of data set: physicochemical. The conditions noted are these: as solid as well as in solution.
Setting [10] is: buffer pH 6.0 (phosphate buffer).
Where [11] appears, read: buffer pH 6.8 (phosphate buffer).
Where [12] appears, read: water, read-out: solubility in water.

Counter-ions that a name gives are not always drawn. Like-named read-outs stand apart in the source and are kept apart here.

These results are taken from patent US8487095B2, “Acid addition salts, hydrates and polymorphs of 5-(2,4-dihydroxy-5-iso-propyl-phenyl)-4-(4-morpholin-4-ylmethyl-phenyl)-isoxazole-3-carboxylic acid ethylamide and formulations comprising these forms” (priority 2007, dated 2013).

For “5-(2,4-dihydroxy-5-isopropyl-phenyl)-4-(4-morpholin-4-ylmethyl-phenyl)-isoxazole-3-carboxylic acid ethylamide hemi fumarate [hemi fumarate salt]”, the solubility in water in data set [1] (water) was in the range of 100 to 250 µg/mL.
Broadly, the solubility is the dissolved amount per volume that the medium holds. Regarding `C=CCNC1=C2C[C@@H](C)C[C@H](OC)[C@H](O)[C@@H](C)/C=C(\C)[C@H](OC(N)=O)[C@@H](OC)/C=C\C=C(/C)C(=O)NC(=CC1=O)C2=O` [Example 17-AAG, 17-allylamino-17-demethoxy-geldanamycin], the solubility entry in [2] is “poor solubility”. Besides, in data set [3], the dose limiting toxicity entry was “hepatic toxicity”.
For `CCNC(=O)c1noc(-c2cc(C(C)C)c(O)cc2O)c1-c1ccc(CN2CCOCC2)cc1` [free base, 5-(2,4-Dihydroxy-5-isopropyl-phenyl)-4-(4-morpholin-4-ylmethyl-phenyl)-isoxazole-3-carboxylic acid ethylamide], the “maximum uptake of water” value in data set [4] (80% relative humidity) was found to be 1.8%. Besides, in [4], the “found to be hygroscopic” value was “slightly hygroscopic”. Further, the “solubility in 0.1 N HCl” value in data set [1] fell in the range of 1000 to 2500 µg/mL. In data set [1] (water), the solubility in water result is given as “less than 0.1 mg/ml”.
For the compound `CCNC(=O)c1noc(-c2cc(C(C)C)c(O)cc2O)c1-c1ccc(CN2CCOCC2)cc1` [hydrochloride salt, 5-(2,4-Dihydroxy-5-isopropyl-phenyl)-4-(4-morpholin-4-ylmethyl-phenyl)-isoxazole-3-carboxylic acid ethylamide hydrochloric acid salt], the “found to be hygroscopic” value in [4] is “Neither”. For the same compound, in data set [5], the “change of crystalline form by equilibration in suspension” value is “did not change”. Further, the “solubility in 0.1 N HCl” value in [1] is listed as “less than 1 mg/ml”. For the same compound, the “solubility at pH 5” value in data set [1] (pH 5) is on record as 1-2.5 mg/ml. Besides, in [1] (water), the solubility in water was in the range of 2500 to 5000 µg/mL.
As for `CCNC(=O)c1noc(-c2cc(C(C)C)c(O)cc2O)c1-c1ccc(CN2CCOCC2)cc1` [mesylate salt, 5-(2,4-Dihydroxy-5-isopropyl-phenyl)-4-(4-morpholin-4-ylmethyl-phenyl)-isoxazole-3-carboxylic acid ethylamide mesylate], the “crystal formation in solution” value in [6] (in the presence of other salts (e.g. sodium chloride, buffer salts)) is on record as “crystals are formed sooner or later”. Besides, the “chemical stability in formulation” value in data set [6] (isotonic aqueous solution with 5% w/w of glucose or mannitol) is “chemically stable”. The “crystal formation on storage” value in data set [6] (isotonic aqueous solution with 5% w/w of glucose or mannitol, longer storage time, e.g. several months) is reported as “crystal formation can be avoided”. For the same compound, the appearance entry in data set [7] (0.9% NaCl), in data set [7] (5% glucose solution), in data set [7] (Water), in data set [7] (buffer pH1.0 (HCl)), in data set [7] (buffer pH2.0 (citrate buffer)) and in [7] (buffer pH3.0 (citrate buffer)) was “colorless solution” in each case. Further, the appearance entry in data set [7] (buffer pH 4.0 (acetate buffer)) is reported as “colorless solution”; in data set [7] (buffer pH 5.0 (acetate buffer)), “colorless solution”; in data set [7] (setting [10]), “colorless suspension”; in data set [7] (setting [11]), “colorless suspension”; in [7] (buffer pH8.0 (borate buffer)), “colorless suspension”. Also, the “sum of by- and degradation products” value in data set [7] (0.9% NaCl) stood at 0.34%; in [7] (5% glucose solution), 0.34%; in [7] (Water), 0.32%; in data set [7] (buffer pH1.0 (HCl)), 2.83%; in [7] (buffer pH2.0 (citrate buffer)), 0.58%; in data set [7] (buffer pH3.0 (citrate buffer)) it was 0.47%. The “sum of by- and degradation products” value in data set [7] (buffer pH 4.0 (acetate buffer)) turned out to be 0.36%; in data set [7] (buffer pH 5.0 (acetate buffer)) it was 0.50%; in data set [7] (setting [10]) it was 0.49%; in data set [7] (setting [11]) it was 0.79%; in data set [7] (buffer pH8.0 (borate buffer)) it was 0.26%. In data set [7] (stress conditions), the “pH of stability maximum” value is given as 4. Moreover, the “found to be hygroscopic” value in data set [4] (mesylate) was “Neither”. In addition, the solubility in data set [8] (0.9% NaCl solution, saline or isotonic, thermodynamic from solid) was found to be 12800 µg/mL; in data set [8] (5% glucose solution, saline or isotonic, thermodynamic from solid) it was 39000 µg/mL; in data set [8] (5% mannitol solution, saline or isotonic, thermodynamic from solid), 39000 µg/mL; in data set [8] (aqueous buffer, thermodynamic from solid, buffer pH 4.0 (acetate buffer)), 14600 µg/mL; in [8] (aqueous buffer, thermodynamic from solid, buffer pH 5.0 (acetate buffer)), 3200 µg/mL; in data set [8] (aqueous buffer, thermodynamic from solid, buffer pH 6.0 (phosphate buffer)), 600 µg/mL. The solubility was 700 µg/mL in data set [8] (aqueous buffer, thermodynamic from solid, buffer pH 7.0 (phosphate buffer)); 1800 µg/mL in [8] (aqueous buffer, thermodynamic from solid, buffer pH 8.0 (borate buffer)); 37500 µg/mL in data set [8] (pH 3.6, thermodynamic from solid, Water (pH of the saturated solution=3.6)); 35600 µg/mL in [8] (saline or isotonic, thermodynamic from solid, 5% glucose solution pH 4); 37500 µg/mL in [8] (saline or isotonic, thermodynamic from solid, 5% glucose solution pH 7); 1000 to 2500 µg/mL in [1] (pH 5, aqueous buffer, pH 5, read-out: solubility at pH 5). For the same compound, the solubility in data set [1] (water, pH 4, water, water at pH 4, read-out: solubility in water at pH 4) was 33500 µg/mL. Further, in [9] (aqueous solution, around 4.8 to 5.2 mg/ml mesylate), the “pH of the solution” value was “around 4.2”. Besides, the stability to autoclavation result in data set [9] (solution of around 4.8 to 5.2 mg/ml, about 120° C., 20 to 40 minutes, around 2 bar) is listed as “without causing any color changes or degradation products”. Further, the “solubility compared with the free base (and other salts)” value in data set [1] is on record as “superior”. Further, the “solubility in 0.1 N HCl” value in [1] (mesylate) was 10000 to 20000 µg/mL. In addition, the light sensitivity entry in “Light sensitivity” was “light sensitive”.
Turning to `CCNC(=O)c1noc(-c2cc(C(C)C)c(O)cc2O)c1-c1ccc(CN2CCOCC2)cc1.O=P(O)(O)O` [phosphate salt, 5-(2,4-dihydroxy-5-isopropyl-phenyl)-4-(4-morpholin-4-ylmethyl-phenyl)-isoxazole-3-carboxylic acid ethylamide phosphate], the solubility in data set [1] (setting [12]) is 500 to 1000 µg/mL.
The same measure, in the same setting: the figure for `CCNC(=O)c1noc(-c2cc(C(C)C)c(O)cc2O)c1-c1ccc(CN2CCOCC2)cc1.O=C(O)C(O)C(O)C(=O)O` [tartrate salt, 5-(2,4-dihydroxy-5-isopropyl-phenyl)-4-(4-morpholin-4-ylmethyl-phenyl)-isoxazole-3-carboxylic acid ethylamide tartrate] is above 2000 µg/mL.
